According to ChEMBL document CHEMBL5096182, “Aurora kinase inhibitors as potential anticancer agents: Recent advances” (Eur J Med Chem, 2021):
Values after ≈ are worked out from the molar mass of the structure shown. Each block holds one compound with its values, some of them ahead of it.

How the values were obtained:
Aurora kinase A [1] = target: T1, Aurora kinase A (Homo sapiens, UniProt O14965); experiment: Inhibition of Aurora A (unknown origin) using recombinant Lats2-N-ter as substrate incubated in the presence of ATP
T1 sequence (O14965 whole entry): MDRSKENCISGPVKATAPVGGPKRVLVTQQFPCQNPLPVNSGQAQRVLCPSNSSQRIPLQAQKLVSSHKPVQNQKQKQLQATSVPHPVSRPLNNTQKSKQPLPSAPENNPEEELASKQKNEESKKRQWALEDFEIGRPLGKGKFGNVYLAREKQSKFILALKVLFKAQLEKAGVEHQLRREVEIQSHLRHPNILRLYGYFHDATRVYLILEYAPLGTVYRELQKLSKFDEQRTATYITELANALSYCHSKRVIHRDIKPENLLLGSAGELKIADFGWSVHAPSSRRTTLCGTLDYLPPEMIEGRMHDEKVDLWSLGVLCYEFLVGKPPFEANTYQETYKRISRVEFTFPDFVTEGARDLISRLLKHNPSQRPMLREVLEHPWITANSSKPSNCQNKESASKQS

[2] = Inhibition of Aurora B (unknown origin) using Ulight-PLK (Ser137) as substrate incubated for 60 mins by FRET-based Lance Ultra Kinase assay; parameters: species or system Homo sapiens
HepG2 [3] = experiment: Antiproliferative activity against human HepG2 cells; assay type: functional, cell-based
Aurora kinase A [4] = target: T1, Aurora kinase A; experiment: Inhibition of N-terminal GST tagged Aurora A (unknown origin) expressed in recombinant baculovirus-infected Sf9 cells using tetra(LRRWSLG) as substrate preincubated for 15 mins followed by the addition of substrate for 90 mins in the presence of ATP by Kinase-Glo Plus reagent based luminescence assay
HCT-116 [5] = experiment: Antiproliferative activity against human HCT-116 cells by MTT assay
HCT-116 [6] = experiment: Anticancer activity against human HCT-116 cells assessed as cell growth inhibition measured after 7 days by crystal violet staining based clonogenic long-term survival assay; assay type: functional; conditions: HCT-116, 168 h, time 7 day
[7] = target: T2, Aurora kinase A (Homo sapiens) (UniProt O14965); experiment: Inhibition of Aurora kinase A (unknown origin) using LeuArgArgAlaSerLeuGly as substrate at 10 uM incubated in presence of ATP relative to control
T2 sequence (whole entry): T1 sequence (O14965 whole entry)

HCT-116 [8] = experiment: Antiproliferative activity against human HCT-116 cells incubated for 48 hrs by SRB assay; assay type: functional, cell-based; conditions: HCT-116, 48 h
A2780 = experiment: Antiproliferative activity against human A2780 cells incubated for 48 hrs by SRB assay; assay type: functional, cell-based; conditions: A2780, 48 h
HepG2 [9] = experiment: Antiproliferative activity against human HepG2 cells incubated for 48 hrs by SRB assay; assay type: functional, cell-based; conditions: HepG2, 48 h
MCF7 = experiment: Antiproliferative activity against human MCF7 cells incubated for 72 hrs by alamar blue cell viability assay; assay type: functional, cell-based; conditions: MCF7, 72 h
MDA-MB-231 = experiment: Antiproliferative activity against human MDA-MB-231 cells incubated for 72 hrs by alamar blue cell viability assay; assay type: functional, cell-based; conditions: MDA-MB-231, 72 h
SK-OV-3 = experiment: Antiproliferative activity against human SK-OV-3 cells incubated for 72 hrs by alamar blue cell viability assay; assay type: functional, cell-based; conditions: SK-OV-3, 72 h
A-375 = experiment: Antiproliferative activity against human A-375 cells incubated for 72 hrs by alamar blue cell viability assay; assay type: functional, cell-based; conditions: A-375, 72 h
A549 [10] = experiment: Antiproliferative activity against human A549 cells incubated for 72 hrs by alamar blue cell viability assay; assay type: functional, cell-based; conditions: A549, 72 h
[11] = Oral bioavailability in mouse at 10 mg/kg; assay type: ADME, organism-based; conditions: in vivo
A549 [12] = experiment: Antiproliferative activity against human A549 cells incubated for 72 hrs by MTT assay; assay type: functional, cell-based; conditions: A549, 72 h
Aurora kinase A [13] = target: T1, Aurora kinase A; experiment: Inhibition of human Aurora A using LeuArgArgAlaSerLeuGly as substrate

SMILES: C=CCn1c(C)nc2ccc(Nc3nc(N4CCN(C)CC4)nc4ccccc34)cc21
IC50 (Aurora kinase A [1]): 35 nM

SMILES: CN1CCN(c2ccc(Nc3ncc(F)c(N4CCN(C)c5cc(F)ccc5C4)n3)cc2)CC1
IC50 [2]: 7 nM

SMILES: COc1cc2ncnc(NCCc3ccc(NC(=O)Nc4ccccc4)cc3)c2cc1OC
IC50 (Aurora kinase A [4]): 25 nM
IC50 (HCT-116 [5]): 23 nM

SMILES: COc1ccc(-c2cc(-c3ccccc3O)nc(N)n2)c(OC)c1
GI50 (HCT-116 [6]): 1450 nM
inhibition [7]: 95%

SMILES: CC(=O)N1CCN(c2ccc(Nc3ncc(F)c(N4CCN(C)c5cc(F)ccc5C4)n3)cc2)CC1
IC50 [2]: 9 nM

SMILES: CN1CCN(c2nc(Nc3ccc(S(N)(=O)=O)cc3)ncc2F)Cc2ccc(F)cc21
IC50 [2]: 8 nM
IC50 (MCF7): 570 nM
IC50 (MDA-MB-231): 420 nM
IC50 (SK-OV-3): 690 nM
IC50 (A-375): 3970 nM
IC50 (A549 [10]): 1530 nM
bioavailability [11]: 73%

SMILES: COc1cccc2c1C(=O)c1c(O)c3c(c(O)c1C2=O)C[C@@](O)(C(=O)CO)C[C@@H]3O[C@H]1C[C@H](N)[C@H](O)[C@H](C)O1 [DOXORUBICIN]
IC50 (HepG2 [3]): 3.56 µg/mL (≈ 6.55 µM)

Now from value to compound:

IC50 (HepG2 [3]): 1.08 µg/mL (≈ 1.54 µM)
SMILES: Cc1c(-c2cc(-c3cn(-c4ccccc4)nc3-c3nnn(-c4cccc([N+](=O)[O-])c4)c3C)c(C#N)c(N)n2)nnn1-c1ccc(Br)cc1

IC50 (HCT-116 [8]): 1320 nM
IC50 (A2780): 3500 nM
IC50 (HepG2 [9]): 2340 nM
SMILES: NC1=C(C(=O)Nc2ccc(-c3nc4ccccc4[nH]3)cc2)C(c2ccc([N+](=O)[O-])cc2)N2C=CSC2N1 (stereo unspecified)

IC50 (A549 [12]): 1140 nM
IC50 (Aurora kinase A [13]): 1140 nM
SMILES: O=C(N/N=C/c1coc2ccccc2c1=O)c1ccc(F)cc1

IC50 (HCT-116 [8]): 1200 nM
IC50 (A2780): 3100 nM
IC50 (HepG2 [9]): 2110 nM
SMILES: COc1ccccc1C1C(C(=O)Nc2ccc(-c3nc4ccccc4[nH]3)cc2)=C(N)NC2SC=CN21 (stereo unspecified)

IC50 (HepG2 [3]): 0.64 µg/mL (≈ 0.873 µM)
SMILES: Cc1c(-c2cc(-c3cn(-c4ccccc4)nc3-c3nnn(-c4ccc(Br)cc4)c3C)c(C#N)c(N)n2)nnn1-c1ccc(Br)cc1

IC50 (HepG2 [3]): 2.34 µg/mL (≈ 5.07 µM)
SMILES: COc1ccc(-c2cc(-c3nnn(-c4ccc(Br)cc4)c3C)nc(N)c2C#N)cc1
